The record followed here is US6509369B2, “Anti-inflammatory compounds” (Ortho-McNeil Pharmaceutical, Inc., priority 1997, dated 2003).

The structures appear in SMILES notation.

Assay [1] deals with T1, human glucocorticoid receptor (hGR) (Homo sapiens, UniProt P04150).
T1 construct: made in house; host or cells: Sf21 insect cells infected with baculovirus hGR, OR IM9 lymphoblast cell line (endogenous hGR)
T1 sequence (P04150 1-777): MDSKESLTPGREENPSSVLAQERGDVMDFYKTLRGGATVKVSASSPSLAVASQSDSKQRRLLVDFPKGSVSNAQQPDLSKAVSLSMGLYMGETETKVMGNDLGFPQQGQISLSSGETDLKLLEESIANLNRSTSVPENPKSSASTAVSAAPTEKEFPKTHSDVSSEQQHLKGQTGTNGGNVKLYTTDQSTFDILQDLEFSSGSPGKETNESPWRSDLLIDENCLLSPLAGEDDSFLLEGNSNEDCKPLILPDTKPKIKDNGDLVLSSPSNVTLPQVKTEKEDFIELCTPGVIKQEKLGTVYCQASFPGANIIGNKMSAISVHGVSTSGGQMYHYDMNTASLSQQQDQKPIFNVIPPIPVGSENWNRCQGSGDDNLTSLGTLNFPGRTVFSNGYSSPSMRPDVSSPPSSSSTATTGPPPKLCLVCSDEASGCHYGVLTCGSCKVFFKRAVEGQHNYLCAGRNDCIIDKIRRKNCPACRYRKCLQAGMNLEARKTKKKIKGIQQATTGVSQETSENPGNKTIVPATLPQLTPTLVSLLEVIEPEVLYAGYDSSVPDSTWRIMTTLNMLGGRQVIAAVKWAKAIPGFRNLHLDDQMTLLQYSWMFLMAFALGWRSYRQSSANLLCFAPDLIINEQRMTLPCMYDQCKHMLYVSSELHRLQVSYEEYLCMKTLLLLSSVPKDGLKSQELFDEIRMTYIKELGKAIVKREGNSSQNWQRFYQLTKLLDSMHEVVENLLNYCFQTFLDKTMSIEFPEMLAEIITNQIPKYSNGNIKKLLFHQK
As to the kind of experiment: human glucocorticoid receptor binding assay (displacement of 3(H) Triamcinolone acetonide). Conditions: for hGR, value given as %: concentration not given. The procedure:
A human glucocorticoid receptor binding assay was carried out to determine the extent to which the compounds of this invention have the ability to bind to human glucocorticoid receptors. This binding ability may be indicative of the antiinflammatory activity of the compound. The test was carried out as follows.
Human glucocorticoid receptors were prepared from either insect cells (Sf21) infected with baculovirus hGR or from a lymphoblast cell line which expresses high levels of endogenous hGR (IM9). The receptor binding reactions, with or without test compounds, were set up in 96-well microtiter plates which were previously siliconized with SIGMACOTE™, a chlorinated organopolysiloxane in heptane. The binding components, 3(H) Triamcinolone acetonide (TAA), glycerol/molybdate-containing buffer and unlabeled compounds were added to the wells using a combination of BIOMEK laboratory automation system and repeat pipettes. After four hours of incubation, the samples were precipitated with polyethylene glycol and filtered through Whatman GF/F paper using a TOMTEK cell harvester. The filter mate with 96 samples were bound to a solid-phase scintillant and directly counted in a BETAPLATE counter. […] The activity of test compounds to displace 3(H) TAA binding to hGR is also expressed as percent inhibition at 1 μM.

Assay [2] concerns human progesterone receptor (hPR). As to the kind of experiment: human progesterone receptor binding assay (displacement of 3(H) R5020 Promegestone). The procedure: A human progesterone receptor binding assay was performed in order to determine selectivity of the compounds, as follows. Human progesterone receptors were prepared from either insect cells (SF21) infected with baculovirus hPR A, or from a breast cancer cell line, T47D, which expresses high levels of endogenous hPR. The receptor binding reactions, with or without test compounds, were set up in 96-well microtiter plates which were previously siliconized with SIGMACOTE. The binding components, 3(H) R5020 Promegestone, a high affinity ligand for the progesterone receptors, glycerol/molybdate-containing buffer and unlabeled compounds were added to the wells using a combination of BIOMEK laboratory automation system and repeat pipettes. After overnight incubation, the samples were precipitated with polyethylene glycol and filtered through Whatman GF/F paper using a TOMTEK cell harvester. The filter mate with 96 samples were bound to a solid-phase scintillant and directly counted in the BETAPLATE counter. Only those compounds that were active in the human glucocorticoid receptor assay set forth in Example 30 were used for progesterone receptor binding to determine cross-reactivity profiles, if any. The activity of test compounds to displace 3(H) R5020 binding to hPR is expressed as percent inhibition at the two concentrations, 10^−6 and 10^−5 Molar.

Assay [3] has as its system oxazolone-induced ear swelling (MOCH) in albino male CD-1 mice. Put plainly: mouse oxazolone-induced contact hypersensitization (MOCH) ear swelling. Format: in vivo. Details: % Inhibition MOCH: concentration or dose not given beside the values. As to conditions: for Oxazolone Ear Swelling (MOCH) % inhibition vs. Vehicle at 1 mg: topical to mouse ear, one hour after oxazolone challenge, ear biopsy weight at 24 hours; for topical antiinflammatory activity in the oxazolone model (in words): mouse ear; for % Inhibition MOCH: mouse, in vivo. As for the experimental part: Several triphenylpropanamide compounds of this invention, having varying affinities for the human glucocorticoid receptor, were tested for topical antiinflammatory activity in mouse ear inflammation models. […] Compounds having receptor affinities closer to hydrocortisone were as nearly active as hydrocortisone in suppressing mouse oxazolone-induced contact hypersensitization (MOCH) and phorbol ester-induced ear edema. The in vivo studies of this example were conducted as follows.
In determining the MOCH using the compounds of this invention, albino male CD-1 mice, 7-9 weeks old were induced on the shaved abdomen with 50 μl of 3% oxazolone in acetone/corn oil (Day 0). On Day 5, a 20 μl volume of 2% oxazolone in acetone was applied to the dorsal left ear of the mouse . Compounds (made in ethanol/propylene glycol, 70:30) were applied to the left ear in 20 μl volume, one hour after oxazolone challenge. The right ear was not treated. The mice were sacrificed by carbon dioxide inhalation 24 hours after oxazolone challenge, the left and right ears were removed and a 7 mm biopsy was removed from each ear and weighed. The difference in biopsy weights between the right and left ears was calculated. Antiinflammatory effects of compounds were evident as an inhibition of the increase in ear weight.

For orientation: IC50 means the concentration at which inhibition is half-maximal. As to `O=C(Cc1ccccc1Cl)NCC(c1ccccc1)C(c1ccccc1)c1ccccc1` (centres unmarked) [Compound 2], in assay [1], the IC50 turned out to be 134 nM. Besides, the “hPR % inh 10 μM” value in assay [2] was −23%.
For `O=C(Cc1ccc(Cl)cc1)NCC(c1ccccc1)C(c1ccccc1)c1ccccc1` (centres unmarked) [Compound 3], in that order: 480 nM and 4%.
Take `Cc1ccc(CC(=O)NCC(c2ccccc2)C(c2ccccc2)c2ccccc2)cc1` (centres unmarked) [Compound 4]: the 50% inhibitory concentration (IC50) in assay [1] came out at 528 nM. In addition, the “hPR % inh 10 μM” value in assay [2] was 12%.
As for `COc1ccccc1CC(=O)NCC(c1ccccc1)C(c1ccccc1)c1ccccc1` (centres unmarked) [Compound 5], in assay [1], the “hGR, value given as %” value is reported as 62%. Besides, the “Oxazolone Ear Swelling (MOCH) % inhibition vs. Vehicle at 1 mg” value in assay [3] is reported as 13%.
Take `COc1ccc(CC(=O)NCC(c2ccccc2)C(c2ccccc2)c2ccccc2)cc1OC` (centres unmarked) [Compound 7]: the IC50 in assay [1] stood at 910 nM. In addition, the “hPR % inh 10 μM” value in assay [2] was 11.6%.
The like results for `O=C(Cc1c(Cl)cccc1Cl)NCC(c1ccccc1)C(c1ccccc1)c1ccccc1` (centres unmarked) [Compound 8] were, in that order, 340 nM and 3%.
`O=C(Cc1ccccc1C(F)(F)F)NCC(c1ccccc1)C(c1ccccc1)c1ccccc1` (centres unmarked) [Compound 10]: in assay [1], the IC50 was found to be 780 nM. Besides, the “hPR % inh 10 μM” value in assay [2] was 15%.
For `O=C(Cc1cccc(C(F)(F)F)c1)NCC(c1ccccc1)C(c1ccccc1)c1ccccc1` (centres unmarked) [Compound 11], in that order: 830 nM and 20%.
The like results for `O=C(Cc1ccc(C(F)(F)F)cc1)NCC(c1ccccc1)C(c1ccccc1)c1ccccc1` (centres unmarked) [Compound 12] were, in that order, 1500 nM and 15%.
The like results for `O=C(Cc1ccccc1)NCC(c1ccc(Cl)cc1)C(c1ccccc1)c1ccccc1` (centres unmarked) [Compound 14] were, in that order, 72 nM and 18%.
As for `O=C(Cc1ccccc1Cl)NCC(c1ccccc1)C(c1ccc(F)cc1)c1ccc(F)cc1` (centres unmarked) [Compound 16], in assay [1], the IC50 worked out at 45 nM. Besides, the “topical antiinflammatory activity in the oxazolone model (in words)” value in assay [3] is on record as “moderate topical activity”.
Consider `O=C(Cc1ccccc1)NCC(c1ccccc1)C(c1ccc(F)cc1)c1ccc(F)cc1` (centres unmarked) [Compound 18, N-[3,3-bis-(4-fluorophenyl)-2-phenylpropyl]-2-phenylacetamide], for which the IC50 in assay [1] stood at 610 nM. The “hPR % inh 10 μM” value in assay [2] came out at 14.1%.
On to `O=C(CCc1ccccc1)NCC(c1ccccc1)C(c1ccccc1)c1ccccc1` (centres unmarked) [Compound 19], for which, in assay [1], the IC50 amounted to 141 nM. In assay [2], the “hPR % inh 10 μM” value is 24%.
For `COc1ccccc1CCC(=O)NCC(c1ccccc1)C(c1ccccc1)c1ccccc1` (centres unmarked) [Compound 20], in that order: 58 nM and 9%.
Turning to `COc1ccccc1CCC(=O)NCC(c1ccccc1)C(c1ccc(F)cc1)c1ccc(F)cc1` (centres unmarked) [Compound 23], the IC50 in assay [1] is 22 nM. Also, in assay [3], the “topical antiinflammatory activity in the oxazolone model (in words)” value was “moderate topical activity”.
In the case of `O=C(CCCc1ccccc1)NCC(c1ccccc1)C(c1ccccc1)c1ccccc1` (centres unmarked) [Compound 24], the IC50 in assay [1] was 670 nM. Also, in assay [2], the “hPR % inh 10 μM” value amounted to 10%.
With `O=C(Cc1cccs1)NCC(c1ccc(Cl)cc1)C(c1ccccc1)c1ccccc1` (centres unmarked) [Compound 34], the IC50 in assay [1] was 21 nM. The “hPR % inh 10 μM” value in assay [2] stood at 17%.
Regarding `O=C(Cc1ccccc1Cl)NCC(c1ccccc1)C1c2ccccc2-c2ccccc21` (centres unmarked) [Compound 68], the “hGR, value given as %” value in assay [1] stood at 46%. Also, in assay [3], the “Oxazolone Ear Swelling (MOCH) % inhibition vs. Vehicle at 1 mg” value is recorded as 28%.
The like results for `O=C(Cc1ccccc1C(F)(F)F)NCC(c1ccccc1)C1c2ccccc2-c2ccccc21` (centres unmarked) [Compound 69] were, in that order, 15% and 43%.
For `Cc1ccc(C(=O)NCC(c2ccccc2)C2c3ccccc3-c3ccccc32)s1` (centres unmarked) [Compound 72], in that order: 33% and 50%.
As for `O=C(Cc1ccc(-c2ccccc2)cc1)NCC(c1ccc2c(c1)OCO2)C(c1ccccc1)c1ccccc1` (centres unmarked) [Compound 134], the “% Inhibition MOCH” value in assay [3] is recorded as 29%.
The same measure, in the same setting: the figure for `O=C(Cc1cccs1)NCC(c1ccc(C(F)(F)F)cc1)C(c1ccccc1)c1ccccc1` (centres unmarked) [Compound 135] is 31%; for `O=C(NCC(c1ccc(C(F)(F)F)cc1)C(c1ccccc1)c1ccccc1)c1cccs1` (centres unmarked) [Compound 136] it is 38%.
In the case of `O=C(NCC(c1ccc(C(F)(F)F)cc1)C(c1ccccc1)c1ccccc1)c1ccccc1Cl` (centres unmarked) [Compound 137], in assay [3], the “% Inhibition MOCH” value is 45%.
Same read-out and setting: the figure for `O=C(Cc1ccc(Cl)c(Cl)c1)NCC(c1ccc(C(F)(F)F)cc1)C(c1ccccc1)c1ccccc1` (centres unmarked) [Compound 138] is 33%; for `O=C(NCC(c1ccc(C(F)(F)F)cc1)C(c1ccccc1)c1ccccc1)c1ccc(Cl)cc1Cl` (centres unmarked) [Compound 139] it is 42%; for `Cc1cccc(CC(=O)NCC(c2ccc(C(F)(F)F)cc2)C(c2ccccc2)c2ccccc2)c1` (centres unmarked) [Compound 140] it is 57%.
The same measure, in the same setting: in the case of `O=C(Cc1ccccc1)NCC(c1ccc(C(F)(F)F)cc1)C(c1ccccc1)c1ccccc1` (centres unmarked) [Compound 141] it was 66%; in that of `O=C(Cc1ccccn1)NCC(c1ccc(C(F)(F)F)cc1)C(c1ccccc1)c1ccccc1` (centres unmarked) [Compound 142], 39%; in that of `CSc1ccc(CC(=O)NCC(c2ccc(C(F)(F)F)cc2)C(c2ccccc2)c2ccccc2)cc1` (centres unmarked) [Compound 143], 19%.
On the same count and under the same terms, in the case of `COc1cc(Cl)ccc1C(=O)NCC(c1ccc(C(F)(F)F)cc1)C(c1ccccc1)c1ccccc1` (centres unmarked) [Compound 144] it was 33%; in that of `O=C(Cc1cc2cc(Cl)ccc2s1)NCC(c1ccc(C(F)(F)F)cc1)C(c1ccccc1)c1ccccc1` (centres unmarked) [Compound 145], 54%; in that of `O=C(Cc1ccccc1Cl)NCC(c1ccc(C(F)(F)F)cc1)C(c1ccccc1)c1ccccc1` (centres unmarked) [Compound 146], 39%.
For `O=C(Cc1ccc(F)cc1F)NCC(c1ccc(C(F)(F)F)cc1)C(c1ccccc1)c1ccccc1` (centres unmarked) [Compound 147], the “% Inhibition MOCH” value in assay [3] is on record as 55%.
Same read-out and setting: the figure for `COc1ccccc1CC(=O)NCC(c1ccc(C(F)(F)F)cc1)C(c1ccccc1)c1ccccc1` (centres unmarked) [Compound 148] is 42%; for `COc1cc(CC(=O)NCC(c2ccc(C(F)(F)F)cc2)C(c2ccccc2)c2ccccc2)cc(OC)c1` (centres unmarked) [Compound 149] it is 42%.
